The test has as its target T1, c-Kit(V654A) (Homo sapiens, UniProt P10721, V654A).
T1 construct: amino acids 544-end containing the V654A mutation; GST (N)
Nature of the test: c-Kit(V654A) assay. To be noted: recombinant human c-Kit aa 544-end, 200 μM ATP, 1.4E-06 means 1.4×10^−6, read-out: Inhibition (IC50) of c-KIT (V654A). It counts as biochemical. How it is done: c-Kit(V654A) (N-terminal GST-tagged, recombinant human c-Kit, amino acids 544-end containing the V654A mutation) is incubated with 8 mM MOPS pH 7.0, 0.2 mM EDTA, 250 μM GGMEDIYEFMGGKKK, 10 mM MgAcetate and [gamma-33P-ATP] (specific activity approx. 500 cpm/pmol, concentration 200 μM). The reaction is initiated by the addition of the MgATP mix. After incubation for 40 minutes at room temperature, the reaction is stopped by the addition of 3% phosphoric acid solution. 10 μL of the reaction is then spotted onto a P30 filtermat and washed three times for 5 minutes in 75 mM phosphoric acid and once in methanol prior to drying and scintillation counting.

In general, IC50 refers to the midpoint of a concentration-inhibition curve.

T1 sequence (P10721 544-976 V654A): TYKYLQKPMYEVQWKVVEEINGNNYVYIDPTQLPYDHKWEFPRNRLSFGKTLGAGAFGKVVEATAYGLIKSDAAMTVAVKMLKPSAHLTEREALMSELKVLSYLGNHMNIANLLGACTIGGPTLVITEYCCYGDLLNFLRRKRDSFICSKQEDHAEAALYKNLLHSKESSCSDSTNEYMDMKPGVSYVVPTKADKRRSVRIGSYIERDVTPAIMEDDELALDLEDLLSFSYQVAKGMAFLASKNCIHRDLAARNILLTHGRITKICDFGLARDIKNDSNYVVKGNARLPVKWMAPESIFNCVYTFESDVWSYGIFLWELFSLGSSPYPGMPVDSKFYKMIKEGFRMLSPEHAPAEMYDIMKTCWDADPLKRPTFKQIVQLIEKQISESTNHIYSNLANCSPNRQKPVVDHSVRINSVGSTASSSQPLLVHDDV

As for `CO[C@H]1CCN(S(=O)(=O)c2ccc(-n3cc(-c4cc5cc(F)ccc5[nH]c4=O)nn3)cc2)C1` [A360, 6-fluoro-3-{1-[4-((S)-3-methoxy-pyrrolidine-1-sulfonyl)-phenyl]-1H-[1,2,3]triazol-4-yl}-1H-quinolin-2-one], the IC50 is 22 nM.

Regarding `CN1C[C@H]2CCN(C(=O)c3ccc(-n4cc(-c5cc6cc(F)ccc6[nH]c5=O)nn4)cc3)[C@H]2C1` [A291, 6-fluoro-3-{1-[4-((3aR,6aR)-5-methyl-hexahydro-pyrrolo[3,4-b]pyrrole-1-carbonyl)-phenyl]-1H-[1,2,3]triazol-4-yl}-1H-quinolin-2-one], the IC50 was 7.5 nM.

For `Cn1cc(C2CCCN2C(=O)c2ccc(-n3cc(-c4cc5cc(F)ccc5[nH]c4=O)nn3)cc2)cn1` (stereo not drawn) [A285, 6-fluoro-3-(1-{4-[2-(1-methyl-1H-pyrazol-4-yl)-pyrrolidine-1-carbonyl]-phenyl}-1H-[1,2,3]triazol-4-yl)-1H-quinolin-2-one], the IC50 amounted to 5.6 nM.

Regarding `O=C(c1ccc(-n2cc(-c3cc4cc(F)ccc4[nH]c3=O)nn2)cc1)N1CCCC1c1cccnc1` (stereo not drawn) [A286, 6-fluoro-3-{1-[4-(2-pyridin-3-yl-pyrrolidine-1-carbonyl)-phenyl]-1H-[1,2,3]triazol-4-yl}-1H-quinolin-2-one], the half-inhibitory concentration (IC50) is 5.1 nM.

For `CS(=O)(=O)[C@@H]1CCN(C(=O)c2ccc(-n3cc(-c4cc5cc(F)ccc5[nH]c4=O)nn3)cc2)C1` [A282, 6-fluoro-3-{1-[4-((R)-3-methanesulfonyl-pyrrolidine-1-carbonyl)-phenyl]-1H-[1,2,3]triazol-4-yl}-1H-quinolin-2-one], the concentration for half-maximal inhibition (IC50) is 16 nM.

On to `CN1CC[C@H](Oc2ccc(-n3cc(-c4cc5cc(F)c(F)cc5[nH]c4=O)nn3)cc2)C1` [A372, 6,7-difluoro-3-{1-[4-((S)-1-methyl-pyrrolidin-3-yloxy)-phenyl]-1H-[1,2,3]triazol-4-yl}-1H-quinolin-2-one], for which the IC50 turned out to be 21 nM.

`CN1CCC(Oc2ccc(-n3cc(-c4cc5cc(Cl)ccc5[nH]c4=O)nn3)cc2)CC1` [A376, 6-chloro-3-{1-[4-(1-methyl-piperidin-4-yloxy)-phenyl]-1H-[1,2,3]triazol-4-yl}-1H-quinolin-2-one]: the IC50 worked out at 4.9 nM.

In the case of `CO[C@H]1CCN(C(=O)c2cc(-n3cc(-c4cc5cc(F)ccc5[nH]c4=O)nn3)cs2)C1` [A350, 6-fluoro-3-{1-[5-((S)-3-methoxy-pyrrolidine-1-carbonyl)-thiophen-3-yl]-1H-[1,2,3]triazol-4-yl}-1H-quinolin-2-one], the IC50 is 16 nM.

Regarding `CN1CCN(C(=O)c2ccc(-n3cc(-c4cc5cc(Cl)ccc5[nH]c4=O)cn3)cc2)CC1` [A305, 6-chloro-3-{1-[4-(4-methyl-piperazine-1-carbonyl)-phenyl]-1H-pyrazol-4-yl}-1H-quinolin-2-one], the IC50 stood at 7.7 nM.

`CN1CCN(C(=O)c2ccc(-n3cc(-c4cc5cc(F)c(F)cc5[nH]c4=O)cn3)cc2)CC1` [A304, 6,7-difluoro-3-{1-[4-(4-methyl-piperazine-1-carbonyl)-phenyl]-1H-pyrazol-4-yl}-1H-quinolin-2-one]: the IC50 worked out at 16 nM.

As to `CO[C@@H]1CCN(C(=O)c2cc(-n3cc(-c4cc5cc(F)ccc5[nH]c4=O)nn3)cs2)C1` [A351, 6-fluoro-3-{1-[5-((R)-3-methoxy-pyrrolidine-1-carbonyl)-thiophen-3-yl]-1H-[1,2,3]triazol-4-yl}-1H-quinolin-2-one], the IC50 is 14 nM.

Consider `CN1CCC(C(=O)N(C)c2ccc(-n3cc(-c4cc5cc(F)ccc5[nH]c4=O)nn3)cc2)CC1` [A349, 1-methyl-piperidine-4-carboxylic acid {4-[4-(6-fluoro-2-oxo-1,2-dihydro-quinolin-3-yl)-[1,2,3]triazol-1-yl]-phenyl}-methyl-amide], for which the IC50 amounted to 51 nM.

As to `CN1CC2(CCN(C(=O)c3ccc(-n4cc(-c5cc6cc(F)ccc6[nH]c5=O)nn4)cc3)C2)C1` [A289, 6-fluoro-3-{1-[4-(2-methyl-2,6-diaza-spiro[3.4]octane-6-carbonyl)-phenyl]-1H-[1,2,3]triazol-4-yl}-1H-quinolin-2-one], the IC50 came out at 25 nM.

Regarding `CO[C@@H]1CN[C@H](C(=O)N(C)c2ccc(-n3cc(-c4cc5cc(F)ccc5[nH]c4=O)nn3)cc2)C1` [A347, (2S,4S)-4-methoxy-pyrrolidine-2-carboxylic acid {4-[4-(6-fluoro-2-oxo-1,2-dihydro-quinolin-3-yl)-[1,2,3]triazol-1-yl]-phenyl}-methyl-amide], the IC50 is 26 nM.

With `O=c1[nH]c2ncccc2cc1-c1cn(-c2ccc(CO)cc2)nn1` [A7, 3-[1-(4-hydroxymethyl-phenyl)-1H-[1,2,3]triazol-4-yl]-1H-[1,8]naphthyridin-2-one], the concentration for half-maximal inhibition (IC50) came out at 490 nM.

For the compound `CO[C@@H]1CCC[C@H]1Oc1ccc(-n2cc(-c3cc4cc(F)ccc4[nH]c3=O)nn2)cc1` [A362, 6-fluoro-3-{1-[4-((1S,25)-2-methoxy-cyclopentyloxy)-phenyl]-1H-[1,2,3]triazol-4-yl}-1H-quinolin-2-one], the IC50 stood at 16 nM.

With `CO[C@H](C)C(=O)N(C)c1ccc(-n2cc(-c3cc4cc(F)ccc4[nH]c3=O)nn2)cc1` [A346, (R)—N-{4-[4-(6-fluoro-2-oxo-1,2-dihydro-quinolin-3-yl)-[1,2,3]triazol-1-yl]-phenyl}-2-methoxy-N-methyl-propionamide], the IC50 came out at 16 nM.

Consider `O=c1[nH]c2ncccc2cc1-c1cn(-c2ccccc2)nn1` [A6, 3-(1-phenyl-1H-[1,2,3]triazol-4-yl)-1H-[1,8]naphthyridin-2-one], for which the half-inhibitory concentration (IC50) was determined as 430 nM.

As to `CN1CC[C@@H](Oc2ccc(-n3cc(-c4cc5cc(F)c(F)cc5[nH]c4=O)nn3)cc2)C1` [A373, 6,7-difluoro-3-{1-[4-((R)-1-methyl-pyrrolidin-3-yloxy)-phenyl]-1H-[1,2,3]triazol-4-yl}-1H-quinolin-2-one], the IC50 amounted to 15 nM.

On to `CN(C)C1CN(C(=O)c2ccc(-n3cc(-c4cc5cc(F)ccc5[nH]c4=O)nn3)cc2)CC1(F)F` (stereo not drawn) [A339, 3-{1-[4-(4-dimethylamino-3,3-difluoro-pyrrolidine-1-carbonyl)-phenyl]-1H-[1,2,3]triazol-4-yl}-6-fluoro-1H-quinolin-2-one], for which the IC50 was 9.2 nM.

On to `CO[C@@H]1CCN(S(=O)(=O)c2ccc(-n3cc(-c4cc5cc(F)ccc5[nH]c4=O)nn3)cc2)C1` [A358, 6-fluoro-3-{1-[4-((R)-3-methoxy-pyrrolidine-1-sulfonyl)-phenyl]-1H-[1,2,3]triazol-4-yl}-1H-quinolin-2-one], for which the IC50 was 19 nM.

For `CN1CCN(CC2CCCN2C(=O)c2ccc(-n3cc(-c4cc5cc(F)ccc5[nH]c4=O)nn3)cc2)CC1` (stereo not drawn) [A287, 6-fluoro-3-(1-{4-[2-(4-methyl-piperazin-1-ylmethyl)-pyrrolidine-1-carbonyl]-phenyl}-1H-[1,2,3]triazol-4-yl)-1H-quinolin-2-one], the IC50 is 25 nM.

Regarding `CC1CCCN1C(=O)c1ccc(-n2cc(-c3cc4cc(F)ccc4[nH]c3=O)nn2)cc1` (stereo not drawn) [A288, 6-fluoro-3-{1-[4-(2-methyl-pyrrolidine-1-carbonyl)-phenyl]-1H-[1,2,3]triazol-4-yl}-1H-quinolin-2-one], the IC50 came to 6.5 nM.

With `CO[C@@H](C)C(=O)N(C)c1ccc(-n2cc(-c3cc4cc(F)ccc4[nH]c3=O)nn2)cc1` [A348, (S)—N-{4-[4-(6-fluoro-2-oxo-1,2-dihydro-quinolin-3-yl)-[1,2,3]triazol-1-yl]-phenyl}-2-methoxy-N-methyl-propionamide], the IC50 came to 16 nM.

(Values after patent US11939314B2, “Quinolin-2-one derivatives” (MERCK PATENT GMBH, priority 2016, dated 2024).)
